Like-named read-outs stand apart in the source and are kept apart here.
Assays:
[1] = system: galactitol accumulation in the tissues of the lens, sciatic nerve, and diaphragm; assay: Galactosemic rats: lowering of dulcitol (galactitol) accumulation in lens, sciatic nerve and diaphragm; format: in vivo, Male Sprague-Dawley rats; settings: for % Lowering dulcitol accumulation IN VIVO, D: diaphragm
Description: Such experiments are exemplified hereinbelow after the listing of the following general comments pertaining to these experiments:
Male Sprague-Dawley rats, weighing approximately 90 grams were separated into groups of equal average body weight, with six animals per group. The animals were housed in cages of six animals each and maintained on 12 hour night/12 hour day cycles. Except as otherwise noted, the animals were given food and water ad libitum.
On day 1, the galactosemic control group and all drug-treated groups were given access to 20% galactose chow (Bio-Serv, Frenchtown, N.J.). Animals in the control group were given access to 20% glucose chow (Bio-Serv). Test compounds were administered either in the diet or by gavage as a suspension in 2% Tween 80 in saline. In experiments in which gavage dosing was used, the animals were administered the test compound daily at approximately the same hour each day. Food intake and body weight were determined twice during the course of the experiment. In cases in which the compound was administered in the diet, the average dose was calculated on the basis of the actual average food intake during the experiment.
On the morning of day 5, all animals were fasted; beginning two hours later the animals were decapitated and the lenses, sciatic nerves, and a 50-100 mg portion of the diaphragm were removed, weighed, and frozen in porcelain plates on dry ice.
Only two minor reagent changes were made: (a) the rinsing mixture was an aqueous 5% (w/v) trichloroacetic acid solution and (b) the stock solution was prepared by dissolving 25 mg of dulcitol in 100 mL of an aqueous trichloroacetic acid solution [N.B.: For each experiment the average value found in the tissue from rats fed the glucose diet was subtracted from the individual values found in the corresponding tissue in galactose-fed rats to obtain the amount of polyol accumulated.]
The figures under L, N and D represent the percentage decrease of galactitol accumulation in the tissues of the lens, sciatic nerve, and diaphragm, respectively for treated rats as compared to untreated rats.

[2] = biological target: T1, aldose reductase (Bos taurus, UniProt P16116); assay: In vitro aldose reductase inhibition (modified Hayman and Kinoshita procedure; enzyme from bovine lens); format: biochemical; settings: for inhibition at 10 µM: read-out: % Inhibition IN VITRO 10^-5 M; for inhibition at 1 µM: read-out: % Inhibition IN VITRO 10^-6 M; for inhibition at 0.1 µM: read-out: % Inhibition IN VITRO 10^-7 M
T1 construct: preparation of the enzyme from bovine lens; from tissue; host or cells: bovine lens
Text: In the present case the procedure of Hayman and Kinoshita was modified in that the final chromatography step was omitted in the preparation of the enzyme from bovine lens.

[3] = system: aldose reductase; settings: reported by K. Sestanj et al., U.S. Pat. No. 4,568,693; cited from earlier work
[4] = 20% galactose diet, mg/kg by Example: 1:90, 2:128, 3:141, 4:93, 5:121, 6:110, 7:123, 8:87, 9:92, 10:102, 11:71, 12:84, 13:93, 14:112, 16:100, 17:100, 18:128, 19:117, 20:140, 21:103, 22:151, tolrestat:6
[5] = lens, 20% galactose diet, mg/kg by Example: 1:90, 2:128, 3:141, 4:93, 5:121, 6:110, 7:123, 8:87, 9:92, 10:102, 11:71, 12:84, 13:93, 14:112, 16:100, 17:100, 18:128, 19:117, 20:140, 21:103, 22:151, tolrestat:6

SMILES	inhibition at 10 µM [2] [%]	inhibition at 1 µM [2] [%]	inhibition at 0.1 µM [2] [%]	% Lowering dulcitol accumulation IN VIVO, L [1]	% Lowering dulcitol accumulation IN VIVO, D [1, 4]	% Lowering dulcitol accumulation IN VIVO, L [1, 5]	% Lowering dulcitol accumulation IN VIVO, D ([1]; 98 mg/kg)	% Lowering dulcitol accumulation IN VIVO, D ([1]; 196 mg/kg)	% Lowering dulcitol accumulation IN VIVO, L ([1]; lens, 98 mg/kg)	% Lowering dulcitol accumulation IN VIVO, L ([1]; lens, 196 mg/kg)	inhibitor of aldose reductase (in words) [3]
CSc1nc(C2CCCCC2)n(CC(=O)O)c(=O)c1C#N [Example 1, 5-Cyano-2-cyclohexyl-1,6-dihydro-4-(methylthio)-6-oxo-1-pyrimidineacetic Acid]				N.S.	42%						
N#Cc1c(SCc2ccc(Br)cc2)nc(C2CCCCC2)n(CC(=O)O)c1=O [Example 3]	96	96	93		N.S.	N.S.					
N#Cc1c(SCc2ccc(Br)cc2F)nc(C2CCCCC2)n(CC(=O)O)c1=O [Example 4, 4-[[(4-bromo-2-fluorophenyl)methyl]thio]-5-cyano-2-cyclohexyl-1,6-dihydro-6-oxo-1-pyrimidineacetic acid]					N.S.	15%					
CCCCCCSc1nc(C2CCCCC2)n(CC(=O)O)c(=O)c1C#N [Example 5]	94	95	96		N.S.	N.S.					
CC(C)Sc1nc(C2CCCCC2)n(CC(=O)O)c(=O)c1C#N [Example 6]	93	92	90		N.S.	N.S.					
N#Cc1c(SCC2CCCCC2)nc(C2CCCCC2)n(CC(=O)O)c1=O [Example 7]	96	95	90		N.S.	N.S.					
CSc1nc(C(C)C)n(CC(=O)O)c(=O)c1C#N [Example 8]	96	96	94		N.S.	N.S.					
CC(C)Sc1nc(C(C)C)n(CC(=O)O)c(=O)c1C#N [Example 9]	96	97	91		16%	N.S.					
CSc1nc(C)n(CC(=O)O)c(=O)c1C#N [Example 11, 5-Cyano-1,6-dihydro-2-methyl-4-(methylthio)-6-oxo-1-pyrimidineacetic Acid]	86	84	74		N.S.	N.S.					
Cc1nc(NCC2CCCCC2)c(C#N)c(=O)n1CC(=O)O [Example 16]	93	91	72		N.S.	N.S.					
N#Cc1c(-c2ccccc2)nc(-c2cccc3ccccc23)n(CC(=O)O)c1=O [Example 19]	84	68	29		21%	N.S.					
N#Cc1c(-c2ccccc2)nc(-c2cccc3c(Br)cccc23)n(CC(=O)O)c1=O [Example 20, 5-Cyano-1,6-dihydro-2-(5-bromo-1-naphthalenyl)-6-oxo-4-phenyl-1-pyrimidineacetic Acid]	82	71	22		N.S.	N.S.					
N#Cc1c(Cc2cccc3ccccc23)nc(-c2cccc3c(Br)cccc23)n(CC(=O)O)c1=O [Example 22]	93	85	46		N.S.	N.S.					
COc1ccc2c(C(=S)N(C)CC(=O)O)cccc2c1C(F)(F)F [tolrestat, N-[[6-methoxy-5-(trifluoromethyl)-1-naphthalenyl]-thioxomethyl]-N-methylglycine, reference compound]					90%	N.S.					effective inhibitor of aldose reductase

Further lines, with some results ahead:

inhibition at 10 µM [2] [%]	inhibition at 1 µM [2] [%]	inhibition at 0.1 µM [2] [%]	SMILES	% Lowering dulcitol accumulation IN VIVO, L [1]	% Lowering dulcitol accumulation IN VIVO, D [1, 4]	% Lowering dulcitol accumulation IN VIVO, L [1, 5]	% Lowering dulcitol accumulation IN VIVO, D ([1]; 98 mg/kg)	% Lowering dulcitol accumulation IN VIVO, D ([1]; 196 mg/kg)	% Lowering dulcitol accumulation IN VIVO, L ([1]; lens, 98 mg/kg)	% Lowering dulcitol accumulation IN VIVO, L ([1]; lens, 196 mg/kg)	inhibitor of aldose reductase (in words) [3]
97	96	91	N#Cc1c(SCc2ccccc2)nc(C2CCCCC2)n(CC(=O)O)c1=O [Example 2]		N.S.	N.S.					
96	98	94	CC(C)c1nc(SCc2ccccc2)c(C#N)c(=O)n1CC(=O)O [Example 10]		38%	N.S.					
88	90	30	Cc1nc(NCc2cccnc2)c(C#N)c(=O)n1CC(=O)O [Example 12, 5-Cyano-1,6-dihydro-2-methyl-6-oxo-4-[(3-pyridinylmethyl)amino]-1-pyrimidineacetic Acid]		N.S.	N.S.					
88	75	52	Cc1nc(N2CCCCC2)c(C#N)c(=O)n1CC(=O)O [Example 13]		N.S.	N.S.					
92	89	64	Cc1nc(N2CCN(Cc3ccccc3)CC2)c(C#N)c(=O)n1CC(=O)O [Example 14]		N.S.	N.S.					
89	88	71	Cc1nc(NCCc2ccccc2)c(C#N)c(=O)n1CC(=O)O [Example 15]				N.S.	N.S.	N.S.	N.S.	
96	90	78	Cc1nc(NCc2ccccc2)c(C#N)c(=O)n1CC(=O)O [Example 17]		N.S.	N.S.					
90	88	81	Cc1nc(N2CCC(Cc3ccccc3)CC2)c(C#N)c(=O)n1CC(=O)O [Example 18]		N.S.	N.S.					
87	55	14	Cc1nc(-c2cccc3ccccc23)n(CC(=O)O)c(=O)c1C#N [Example 21, 5-cyano-1,6-dihydro-4-methyl-2-(1-naphthalenyl)-6-oxo-1-pyrimidineacetic acid]		N.S.	18%					
